Patent publication US20120157377A1, “METHODS TO ENHANCE NIGHT VISION AND TREATMENT OF NIGHT BLINDNESS” (priority 2012, published 2012)

Legend:
humans = assay: Case reports: ophthalmic drops instilled into the conjunctival sac for night vision and night blindness; settings: micro doses in the ophthalmic drops
[1] = cited from earlier work
mice = settings: cited from earlier work

| SMILES | hallucinogenic or other ill effect (humans) | red fluorescence (>640 nm) of eyes versus control mice ([1]; intravenously injected chlorin e6) | fluorescence emission of removed eyes (uptake by the retina) ([1]; mice, 2.00 mg per kilogram body weight intravenously, one hour after administration) | persistence of deposits in the photoreceptors ([1]; mice, intravenous chlorin e6) | neural impulse generation in the retina in response to amber light (mice; in the presence of chlorin e6) | neural impulse generation in the retina in response to red and blue light (mice; in the presence of chlorin e6) | electroretinographic amplitudes in response to red and blue light (mice; mice administered chlorin e6) |
| --- | --- | --- | --- | --- | --- | --- | --- |
| CNC1(c2ccccc2Cl)CCCCC1=O (stereo not shown) [ketamine] | no hallucinogenic or other ill effect | – | – | – | – | – | – |
| C=Cc1c(C)c2cc3nc(c(CC(=O)O)c4[nH]c(cc5nc(cc1[nH]2)C(C)=C5CC)c(C)c4C(=O)O)[C@@H](CCC(=O)O)[C@@H]3C (relative stereo) [chlorin e6] | – | three times more red fluorescence | strong emission band of red florescence centered at 675 nm | remained in the photoreceptors for three hours post administration | not amber light | almost two-fold increase | two-fold greater |
